Results as given in article PMC6813295, “A tumour-selective cascade activatable self-detained system for drug delivery and cancer imaging” (Nature Communications, 2019).
Where a SMILES comes first, the peptide text is derived from it. The star is where a group is joined. X1 = CC1(C)C(=CC=C2CCCC(C=CC3=[N+](CCCCCC(=O)O)c4ccccc4C3(C)C)=C2*)N(CCCCCC(=O)O)c2ccccc21

Assays:
H460 and 293T cells = assay: Confocal imaging of accumulation and retention in cells, H460 versus 293T; format: cell-based, human; conditions: 50 μM for 1 h, washed, at 6 h (maximum difference), cytoplasm, n = 15
Description: (§1) Fig. 3 Recognition and self-assembly of molecule 1 in cells. a Western blots of XIAP expression in H460 and 293T cells. b Confocal images of H460 cells treated with or without energy-dependent inhibitor (oligomycin A, 20 μM) for 1 h, and followed by washing with PBS and treated with the molecule 1 (50 μM) for 1 h. c Statistical analysis of average fluorescence intensities in the cytoplasm of H460 cells from confocal images. Data are presented as the mean ± s.d. (n = 100). ***p < 0.001, p values were performed with one-way ANOVA followed by post hoc Tukey’s test for the indicated comparison. d Confocal images of time-dependent monitoring of H460 and 293T cells treated with the molecule 1 (50 μM) for 1 h followed by washing with PBS and replacing the medium and a further incubation up to 48 h. e Statistical analysis of average fluorescence intensities in the cytoplasm of H460 and 293T cells from confocal images with a timescale range of 1–48 h. Data are presented as the mean ± s.d. […] Finally, incubate up to 6 h and imaging by confocal microscope. g Schematic diagram illustrates the process of NBD fluorescence illumination. h Confocal images of H460 cells treatment with molecule 1-NBD (50 μM) for 1 h. i TEM images of ultrathin section of H460 cells treated with molecule I-1 (50 μM) and without the molecule I-1 for up to 12 h. […]

H460 cells = format: cell-based, human; conditions: confocal
Description: as §1

CC[C@H](C)[C@H](NC(=O)[C@@H]1CCCN1C(=O)[C@@H](NC(=O)[C@H](C)N)C(C)C)C(=O)N[C@@H](C)C(=O)N[C@@H](CCC(N)=O)C(=O)N[C@@H](CCCCN)C(=O)N[C@@H](CC(=O)O)C(=O)N[C@@H](CCC(=O)O)C(=O)N[C@H](C(=O)N[C@@H](CC(=O)O)C(=O)N[C@@H](CCCCN)C(=O)N[C@@H](CC(C)C)C(=O)N[C@H](C(=O)N[C@@H](Cc1ccccc1)C(=O)N[C@@H](Cc1ccccc1)C(=O)N[C@@H](C)C(=O)N[C@@H](CCC(=O)O)C(=O)N[C@@H](CSC1=C(C=CC2=[N+](CCCCCC(=O)O)c3ccccc3C2(C)C)CCCC1=CC=C1N(CCCCCC(=O)O)c2ccccc2C1(C)C)C(=O)NCC(=O)O)C(C)C)C(C)C [molecule 1] (H-AVPIAQKDEVDKLVFFAEC(X1)G-OH)
fluorescent intensity in H460 cells relative to 293T cells (H460 and 293T cells): fivefold higher
uptake pathway into cells (H460 cells; H460, filipin III 5 μg/ml, chlorpromazine 10 μg/ml, amiloride 10 μM, 1 h, 50 μM 2 h, 37 °C): caveolin-mediated endocytic pathway
internalization into cells, energy dependence (H460 cells; H460, oligomycin A 20 μM 1 h, then 50 μM 1 h, n = 100): energy-dependent
